“And” between values parts separate entries of the source, which are not always exact repeats. Equal values may be shown once.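 Method: 48-hour compound exposure of cells in 96-well plates, five concentrations, linear interpolation of endpoints. Abbreviation: GI50, concentration required for 50% inhibition of growth. Definition used: TGI = concentration required for complete inhibition of growth.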
Assays:
Experiment in all cases: NCI anticancer screen, dose series, 48 h
HOP-62 NSCLC = tested on: HOP-62 NSCLC
TK-10 renal = tested on: TK-10 renal
OVCAR-3 ovarian = tested on: OVCAR-3 ovarian
SK-MEL-2 melanoma = tested on: SK-MEL-2 melanoma
HCC-2998 colon = tested on: HCC-2998 colon
U251 CNS = tested on: U251 CNS
CCRF-CEM leukemia = tested on: CCRF-CEM leukemia
EKVX NSCLC = tested on: EKVX NSCLC
HS 578T breast = tested on: HS 578T breast
T-47D breast = tested on: T-47D breast

Structure (SMILES)	TGI (HOP-62 NSCLC)	TGI (TK-10 renal) [µM]	TGI (OVCAR-3 ovarian) [µM]	TGI (SK-MEL-2 melanoma) [µM]	TGI (HCC-2998 colon) [µM]	TGI (U251 CNS) [µM]	TGI (CCRF-CEM leukemia)	TGI (EKVX NSCLC) [µM]	GI50 (HOP-62 NSCLC) [µM]	GI50 (TK-10 renal) [µM]	GI50 (OVCAR-3 ovarian) [µM]	GI50 (SK-MEL-2 melanoma)	GI50 (U251 CNS) [µM]	GI50 (CCRF-CEM leukemia)	GI50 (EKVX NSCLC) [µM]	TGI (HS 578T breast) [µM]	GI50 (HCC-2998 colon) [µM]	GI50 (HS 578T breast) [µM]	GI50 (T-47D breast) [µM]	TGI (T-47D breast) [µM]
CCOC(=O)C12CCCC1(O)N(NC(=O)OC(C)(C)C)C(C)=C2C(=O)OC (stereo unspecified)	> 100 µM	> 100	> 100	> 100	> 100	> 100	> 100 µM	> 100	–	–	–	–	–	–	–	–	–	–	–	–
CCCCCCCCCCCc1nnc(N)o1	> 100 µM	> 100	> 100	> 100	> 100	> 100	–	–	–	–	–	–	–	–	–	–	–	–	–	–
CN(O)C(=O)SCC(NC(=O)CCC(N)C(=O)O)C(=O)NCC(=O)O (stereo unspecified)	> 2 µM and 313 µM and > 2000 µM	> 2000	> 2000	> 2000	> 2	–	> 2 µM and 649 µM and 1240 µM	> 2000	> 2000	> 2000	> 2000	> 2 µM and 524 µM	> 2000	198 µM and 520 µM	> 2000	–	–	–	–	–
O=C(Nc1ccc([As](=O)(O)O)cc1)Nc1cccc(Cl)c1Cl	> 100 µM	> 100	> 100	> 100	> 100	> 100	–	> 100	–	–	–	–	–	–	–	84.8	–	–	–	–
NS(=O)(=O)c1ccc(-n2nc(-c3ccc(Cl)cc3)cc2-c2cc(O)ccc2O)cc1	–	26.1	13.7	> 100	31.2	–	66.6 µM	45.6	–	10.9	4.34	33.5 µM	–	3.14 µM	22.6	78.9	17.2	34.2	–	–
COc1ccc(/C=N/N=C(\N)NO)cc1O	–	–	–	> 100	> 100	> 100	> 100 µM	> 100	–	–	–	–	–	–	–	–	–	–	–	–
O/N=C1/C(=C/c2ccc3c(c2)OCO3)CCCC1C(NO)c1ccc2c(c1)OCO2 (stereo unspecified)	53.7 µM	71.6	30.6	48.1	55.5	45.1	53 µM	89.1	–	–	–	–	–	–	–	–	–	–	–	–
COC(=O)CC1C[C@H](C#N)N(C(=O)c2ccccc2)C[C@@H]1CC[N+](=O)[O-] (stereo partly specified)	> 100 µM	> 100	> 100	0.834	> 100	> 100	> 100 µM	> 100	–	–	–	–	–	–	–	–	–	–	–	–
N#Cc1ccc(OCc2nc(N)nc(N)c2-c2ccc(Cl)c(Cl)c2)cc1	> 100 µM	–	38.2	22	> 100	> 100	> 100 µM	–	5.21	–	5.24	3.55 µM	0.589	2.67 µM	–	41.3	3.19	2.65	9.64	> 100
O=C(O)CCCSC(=O)Nc1ccc(N=Nc2ccccc2)cc1	> 100 µM	> 100	> 100	> 100	> 100	> 100	> 100 µM	> 100	–	–	–	–	–	–	–	–	–	–	–	–
CCOC(=O)/C(C=Nc1ccc(-c2nc3ccccc3[nH]2)cc1)=C(/C)O	> 50 µM	> 50	31.7	22.6	–	15.6	–	38.9	19.7	25.4	12.7	9.14 µM	8.74	–	11.9	30.5	–	11.4	10.3	35.4

Source: PubChem BioAssay (NCI)
